This is an account of results in US10800741B2 (ANCUREALL PHARMACEUTICAL (SHANGHAI) CO., LTD., priority 2017, dated 2020).

What all share (assay): KINOMEscan in vitro binding to 468 labeled protein kinases
Assay [1] has as its target T1, protein kinases (Homo sapiens, UniProt P00519, F317I).
T1 construct: purchased Discovery X company (USA), KINOMEscan screening platform
Particulars: read-out: Test compound/solvent control (%); for remaining binding at 0.001 µM: 1 nM; for remaining binding at 0.01 µM: 10 nM; for remaining binding at 1 µM: 1000 nM. In outline:
(§1)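 Duplicate in vitro binding reactions at 1 nM, 10 nM and 1000 nM compound against a panel of 468 labelled protein kinases (KINOMEscan). Binding expressed relative to solvent control as a percentage, stronger affinity giving a lower value.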

The target in assay [2] is T2, protein kinases (Homo sapiens, UniProt P00533, T790M).
T2 construct: purchased Discovery X company (USA), KINOMEscan screening platform
Particulars: EGFR(T790M). The gist of the method:
as §1

Assay [3] addresses T3, protein kinases (Homo sapiens, UniProt P04629).
T3 construct: purchased Discovery X company (USA), KINOMEscan screening platform
Conditions: TRKA (NTRK1), read-out: Test compound/solvent control (%). The gist of the method: as §1

The target of assay [4] is T4, protein kinases (Homo sapiens, UniProt P06239).
T4 construct: purchased Discovery X company (USA), KINOMEscan screening platform
Conditions: LCK, read-out: Test compound/solvent control (%). The gist of the method: as §1

Assay [5] concerns the target T5, protein kinases (Homo sapiens, UniProt P36888, D835H).
T5 construct: purchased Discovery X company (USA), KINOMEscan screening platform
T5 sequence (P36888 27-993 D835H): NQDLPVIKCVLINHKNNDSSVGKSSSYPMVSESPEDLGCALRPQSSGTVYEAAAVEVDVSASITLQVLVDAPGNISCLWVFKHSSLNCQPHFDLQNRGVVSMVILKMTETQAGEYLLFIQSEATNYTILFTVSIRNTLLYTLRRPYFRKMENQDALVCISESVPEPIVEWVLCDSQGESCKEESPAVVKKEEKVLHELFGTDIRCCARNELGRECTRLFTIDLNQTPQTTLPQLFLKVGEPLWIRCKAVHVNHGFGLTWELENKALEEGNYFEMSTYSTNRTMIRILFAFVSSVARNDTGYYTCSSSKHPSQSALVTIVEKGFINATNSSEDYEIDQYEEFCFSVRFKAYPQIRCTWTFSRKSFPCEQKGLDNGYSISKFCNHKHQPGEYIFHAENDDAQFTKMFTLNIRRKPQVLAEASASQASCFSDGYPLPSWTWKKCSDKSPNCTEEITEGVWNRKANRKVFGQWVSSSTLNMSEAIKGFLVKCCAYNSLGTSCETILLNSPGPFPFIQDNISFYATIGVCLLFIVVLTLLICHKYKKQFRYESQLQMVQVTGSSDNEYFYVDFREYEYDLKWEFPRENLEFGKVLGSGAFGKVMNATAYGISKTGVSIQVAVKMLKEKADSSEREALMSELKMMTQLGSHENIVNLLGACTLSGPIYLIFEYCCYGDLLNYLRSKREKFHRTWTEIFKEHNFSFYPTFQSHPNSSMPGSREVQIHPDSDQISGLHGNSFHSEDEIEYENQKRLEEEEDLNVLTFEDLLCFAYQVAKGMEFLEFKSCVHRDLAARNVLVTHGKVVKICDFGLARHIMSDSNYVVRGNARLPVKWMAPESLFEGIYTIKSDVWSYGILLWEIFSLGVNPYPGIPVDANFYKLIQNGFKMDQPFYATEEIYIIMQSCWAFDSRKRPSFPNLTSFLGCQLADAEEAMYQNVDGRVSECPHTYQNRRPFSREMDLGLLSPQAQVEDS
Particulars: FLT3(D835H), read-out: Test compound/solvent control (%). The gist of the method:
as §1

Assay [6] deals with T6, protein kinases (Homo sapiens, UniProt P36888, N841I).
T6 construct: purchased Discovery X company (USA), KINOMEscan screening platform
T6 sequence (P36888 27-993 N841I): T5 sequence (P36888 27-993 D835H) with H809D, N815I
Particulars: FLT3(N841I), read-out: Test compound/solvent control (%). The gist of the method:
as §1

Assay [7] concerns the target T7, protein kinases (Homo sapiens, UniProt Q02763).
T7 construct: purchased Discovery X company (USA), KINOMEscan screening platform
Conditions: TIE2, read-out: Test compound/solvent control (%). The gist of the method:
as §1

Substitutions are numbered along the chain they refer to. Like-named read-outs stand apart in the source and are kept apart here.

T3 sequence (P04629 33-796): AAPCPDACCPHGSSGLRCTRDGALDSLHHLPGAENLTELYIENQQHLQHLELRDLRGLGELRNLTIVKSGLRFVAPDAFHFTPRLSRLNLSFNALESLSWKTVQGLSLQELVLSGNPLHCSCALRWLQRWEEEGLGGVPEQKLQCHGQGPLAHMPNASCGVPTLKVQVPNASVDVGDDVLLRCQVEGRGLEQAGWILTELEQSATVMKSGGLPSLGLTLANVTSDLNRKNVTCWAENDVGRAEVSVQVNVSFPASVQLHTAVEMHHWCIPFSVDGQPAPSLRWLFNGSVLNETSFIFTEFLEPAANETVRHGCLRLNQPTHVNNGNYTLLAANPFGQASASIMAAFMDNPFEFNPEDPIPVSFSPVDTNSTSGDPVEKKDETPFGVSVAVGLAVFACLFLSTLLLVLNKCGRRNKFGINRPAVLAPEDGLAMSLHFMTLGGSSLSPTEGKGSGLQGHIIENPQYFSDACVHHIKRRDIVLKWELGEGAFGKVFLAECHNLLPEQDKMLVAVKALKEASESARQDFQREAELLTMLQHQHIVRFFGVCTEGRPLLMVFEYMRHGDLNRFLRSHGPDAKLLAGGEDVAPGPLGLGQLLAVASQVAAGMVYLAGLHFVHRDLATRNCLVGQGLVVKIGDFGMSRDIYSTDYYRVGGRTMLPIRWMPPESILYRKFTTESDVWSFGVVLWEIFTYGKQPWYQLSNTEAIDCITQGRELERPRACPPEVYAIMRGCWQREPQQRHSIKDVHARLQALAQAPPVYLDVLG
T7 sequence (Q02763 23-1124): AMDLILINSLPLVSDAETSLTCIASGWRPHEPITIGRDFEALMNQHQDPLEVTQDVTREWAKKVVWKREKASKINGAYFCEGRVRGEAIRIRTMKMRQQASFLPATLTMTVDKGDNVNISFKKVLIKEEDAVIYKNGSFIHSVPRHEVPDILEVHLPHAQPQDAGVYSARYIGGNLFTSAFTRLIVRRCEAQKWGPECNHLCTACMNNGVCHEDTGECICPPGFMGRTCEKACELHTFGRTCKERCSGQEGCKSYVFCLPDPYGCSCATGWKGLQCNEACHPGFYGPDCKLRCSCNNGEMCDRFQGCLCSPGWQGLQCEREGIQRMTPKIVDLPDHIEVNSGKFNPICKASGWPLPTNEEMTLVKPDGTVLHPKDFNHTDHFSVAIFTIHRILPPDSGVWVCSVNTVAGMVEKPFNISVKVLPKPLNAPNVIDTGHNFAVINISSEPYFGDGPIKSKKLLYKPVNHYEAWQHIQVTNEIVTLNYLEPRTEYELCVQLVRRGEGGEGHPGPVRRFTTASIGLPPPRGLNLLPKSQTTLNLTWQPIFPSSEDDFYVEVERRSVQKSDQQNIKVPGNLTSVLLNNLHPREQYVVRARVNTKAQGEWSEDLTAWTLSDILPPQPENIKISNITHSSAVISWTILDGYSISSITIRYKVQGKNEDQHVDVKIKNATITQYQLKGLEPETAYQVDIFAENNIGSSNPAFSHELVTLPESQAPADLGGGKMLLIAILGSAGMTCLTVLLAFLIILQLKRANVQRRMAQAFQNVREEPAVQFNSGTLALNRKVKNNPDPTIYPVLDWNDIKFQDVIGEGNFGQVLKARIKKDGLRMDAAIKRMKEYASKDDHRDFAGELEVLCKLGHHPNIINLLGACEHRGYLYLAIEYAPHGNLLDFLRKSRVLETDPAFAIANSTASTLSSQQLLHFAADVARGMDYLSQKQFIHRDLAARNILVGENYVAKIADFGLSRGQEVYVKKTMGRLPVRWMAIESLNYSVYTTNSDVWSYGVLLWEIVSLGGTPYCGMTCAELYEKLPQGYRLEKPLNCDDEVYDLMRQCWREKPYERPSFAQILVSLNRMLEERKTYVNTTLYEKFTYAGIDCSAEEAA
T4 sequence (P06239 whole entry): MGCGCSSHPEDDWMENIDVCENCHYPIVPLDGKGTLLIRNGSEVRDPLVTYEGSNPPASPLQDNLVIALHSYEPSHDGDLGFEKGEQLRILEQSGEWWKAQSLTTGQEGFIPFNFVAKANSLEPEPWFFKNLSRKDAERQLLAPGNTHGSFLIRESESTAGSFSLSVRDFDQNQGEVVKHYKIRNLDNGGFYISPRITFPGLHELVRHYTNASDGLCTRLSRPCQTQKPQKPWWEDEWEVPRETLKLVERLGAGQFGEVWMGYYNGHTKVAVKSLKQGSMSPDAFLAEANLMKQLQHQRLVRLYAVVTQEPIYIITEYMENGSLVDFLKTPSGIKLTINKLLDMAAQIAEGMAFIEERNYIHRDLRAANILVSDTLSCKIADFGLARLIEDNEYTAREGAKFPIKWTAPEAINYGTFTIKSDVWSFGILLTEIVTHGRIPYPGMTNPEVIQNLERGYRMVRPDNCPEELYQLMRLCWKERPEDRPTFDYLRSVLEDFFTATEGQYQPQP
T1 sequence (P00519 whole entry F317I): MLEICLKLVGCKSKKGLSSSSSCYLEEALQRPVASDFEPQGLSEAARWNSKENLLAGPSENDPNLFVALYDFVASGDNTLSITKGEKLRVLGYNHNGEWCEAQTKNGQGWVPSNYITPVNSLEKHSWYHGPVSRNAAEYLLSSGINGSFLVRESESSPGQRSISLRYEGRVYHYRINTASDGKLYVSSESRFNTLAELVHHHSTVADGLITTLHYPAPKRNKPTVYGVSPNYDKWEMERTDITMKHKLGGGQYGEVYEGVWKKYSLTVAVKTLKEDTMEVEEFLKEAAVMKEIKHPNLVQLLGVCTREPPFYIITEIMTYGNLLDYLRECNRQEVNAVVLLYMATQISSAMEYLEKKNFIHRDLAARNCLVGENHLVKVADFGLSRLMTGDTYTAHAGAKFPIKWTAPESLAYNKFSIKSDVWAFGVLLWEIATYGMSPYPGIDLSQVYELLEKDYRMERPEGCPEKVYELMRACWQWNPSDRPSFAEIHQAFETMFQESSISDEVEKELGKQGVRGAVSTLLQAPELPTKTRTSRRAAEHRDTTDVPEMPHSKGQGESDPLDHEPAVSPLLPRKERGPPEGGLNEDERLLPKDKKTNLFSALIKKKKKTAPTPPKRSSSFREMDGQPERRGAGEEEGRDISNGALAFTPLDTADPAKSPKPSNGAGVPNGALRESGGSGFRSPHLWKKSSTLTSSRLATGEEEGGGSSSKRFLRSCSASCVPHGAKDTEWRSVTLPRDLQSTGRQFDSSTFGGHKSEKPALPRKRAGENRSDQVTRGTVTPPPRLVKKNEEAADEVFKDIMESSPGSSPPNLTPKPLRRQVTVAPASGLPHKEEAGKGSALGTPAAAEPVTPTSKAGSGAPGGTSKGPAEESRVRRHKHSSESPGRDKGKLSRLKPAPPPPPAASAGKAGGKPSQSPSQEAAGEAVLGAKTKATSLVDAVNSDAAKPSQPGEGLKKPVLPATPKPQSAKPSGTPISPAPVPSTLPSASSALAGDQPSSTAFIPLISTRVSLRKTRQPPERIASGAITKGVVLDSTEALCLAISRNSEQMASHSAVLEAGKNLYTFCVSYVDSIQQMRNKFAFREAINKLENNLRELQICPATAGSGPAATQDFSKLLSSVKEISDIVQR
T2 sequence (P00533 25-1210 T790M): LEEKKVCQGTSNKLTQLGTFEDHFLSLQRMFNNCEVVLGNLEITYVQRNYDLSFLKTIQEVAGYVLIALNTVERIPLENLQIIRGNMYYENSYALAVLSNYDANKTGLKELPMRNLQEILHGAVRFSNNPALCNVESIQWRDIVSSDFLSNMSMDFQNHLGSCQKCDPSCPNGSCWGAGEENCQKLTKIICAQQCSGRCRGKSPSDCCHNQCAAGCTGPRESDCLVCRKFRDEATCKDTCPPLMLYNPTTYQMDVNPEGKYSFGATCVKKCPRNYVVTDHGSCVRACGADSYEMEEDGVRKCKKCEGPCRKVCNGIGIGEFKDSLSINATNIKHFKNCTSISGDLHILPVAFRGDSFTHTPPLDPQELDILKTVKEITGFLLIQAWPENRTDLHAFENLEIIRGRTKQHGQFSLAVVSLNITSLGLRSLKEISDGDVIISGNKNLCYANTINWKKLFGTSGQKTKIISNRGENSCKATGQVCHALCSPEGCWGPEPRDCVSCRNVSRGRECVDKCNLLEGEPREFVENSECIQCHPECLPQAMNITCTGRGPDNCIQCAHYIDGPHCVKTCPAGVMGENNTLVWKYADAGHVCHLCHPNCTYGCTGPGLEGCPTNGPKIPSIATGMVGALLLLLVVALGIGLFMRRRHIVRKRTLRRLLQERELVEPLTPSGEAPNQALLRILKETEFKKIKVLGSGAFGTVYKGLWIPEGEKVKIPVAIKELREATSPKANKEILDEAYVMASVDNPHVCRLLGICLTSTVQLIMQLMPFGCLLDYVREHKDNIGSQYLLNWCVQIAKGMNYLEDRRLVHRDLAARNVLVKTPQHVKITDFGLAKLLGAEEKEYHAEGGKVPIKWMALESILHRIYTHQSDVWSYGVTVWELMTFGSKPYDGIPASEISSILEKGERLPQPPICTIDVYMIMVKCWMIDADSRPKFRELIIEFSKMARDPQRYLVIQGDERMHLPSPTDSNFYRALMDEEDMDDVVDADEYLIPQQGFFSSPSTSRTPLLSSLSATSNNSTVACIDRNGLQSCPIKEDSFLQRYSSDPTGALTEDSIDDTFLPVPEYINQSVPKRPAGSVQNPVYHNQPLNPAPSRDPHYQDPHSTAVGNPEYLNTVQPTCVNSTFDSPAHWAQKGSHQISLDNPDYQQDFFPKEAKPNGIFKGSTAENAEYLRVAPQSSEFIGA

Consider `COCCOc1cc2nccc(Oc3ccc(NC(=O)Nc4cc(C(C)(C)C)n[nH]4)c(Cl)c3)c2cc1NC(C)=O` [Compound 66, N-[4-{4-[3-(5-tert-butyl-2H-pyrazol-3-yl)-ureido]-3-chloro-phenoxy}-7-(2-methoxy-ethoxy)-quinolin-6-yl]-acetamide], for which the remaining binding at 0.001 µM was found to be 100% in assay [1] (ABL1(F317I)-phosphorylated); 83% in assay [1] (ABL1(F317I)-unphosphorylated); 48% in assay [3] (1 nM); 33% in assay [4] (1 nM); 79% in assay [5] (1 nM); 88% in assay [6] (1 nM). The remaining binding at 0.001 µM in assay [7] (1 nM) stood at 59%. The remaining binding at 0.01 µM worked out at 31% in assay [1] (ABL1(F317I)-phosphorylated); 17% in assay [1] (ABL1(F317I)-unphosphorylated); 5.5% in assay [3] (10 nM); 0.65% in assay [4] (10 nM); 15% in assay [5] (10 nM); 17% in assay [6] (10 nM). The remaining binding at 0.01 µM in assay [7] (10 nM) is 3.8%. Moreover, the remaining binding at 1 µM amounted to 15% in assay [1] (ABL1(F317I)-phosphorylated); 0.25% in assay [1] (ABL1(F317I)-unphosphorylated); 0.2% in assay [3] (1000 nM); 0.2% in assay [4] (1000 nM); 1.1% in assay [5] (1000 nM); 0.25% in assay [6] (1000 nM). In addition, the remaining binding at 1 µM in assay [7] (1000 nM) was determined as 0.95%. The “Test compound/solvent control (%)” value is 83% in assay [2] (1 nM), 19% in assay [2] (10 nM) and 0.2% in assay [2] (1000 nM).
